Source: doi:10.1101/2023.05.15.540887, “Comparative analysis of drug-like EP300/CREBBP acetyltransferase inhibitors” (bioRxiv, 2023)
Read-outs that look alike come from different tables or passages of the source.

Experiments:
Assay in all cases: NCI-60 growth inhibition (sulforhodamine B)
[1] = tested on: NCI-H522; format: cell-based, human; conditions: NCI-H522 (Non-Small Cell Lung Cancer), negative log of Molar conc., LCONC -8
[2] = tested on: RPMI-8226; format: cell-based, human; conditions: RPMI-8226 (Leukemia), negative log of Molar conc., LCONC -8
[3] = tested on: OVCAR-3
[4] = tested on: A549/ATCC; format: cell-based, human; conditions: A549/ATCC (Non-Small Cell Lung Cancer), negative log of Molar conc., LCONC -8
[5] = tested on: SK-MEL-2; format: cell-based, human; conditions: SK-MEL-2 (Melanoma), negative log of Molar conc., LCONC -8
[6] = tested on: SF-295; format: cell-based, human; conditions: SF-295 (CNS Cancer), negative log of Molar conc., LCONC -8
[7] = tested on: HL-60(TB); format: cell-based, human; conditions: HL-60(TB) (Leukemia), negative log of Molar conc., LCONC -8
[8] = tested on: LOXIMVI; format: cell-based, human; conditions: LOX IMVI (Melanoma), negative log of Molar conc., LCONC -8
[9] = tested on: T-47D; format: cell-based; conditions: Homo sapiens, T47D
[10] = tested on: HS578T; format: cell-based; conditions: Homo sapiens
[11] = tested on: CCRF-CEM; format: cell-based, human; conditions: CCRF-CEM (Leukemia), negative log of Molar conc., LCONC -8
[12] = tested on: SW-620; format: cell-based, human; conditions: SW-620 (Colon Cancer), negative log of Molar conc., LCONC -8
[13] = tested on: HCC-2998; format: cell-based, human; conditions: HCC-2998 (Colon Cancer), negative log of Molar conc., LCONC -8
[14] = Homo sapiens, read-out: GI50 NLOGVALUE (converted)
[15] = Homo sapiens, read-out: IC50 NLOGVALUE
[16] = Homo sapiens, read-out: GI50 NLOGVALUE
[17] = Homo sapiens, read-out: IC50 NLOGVALUE (converted)
[18] = Homo sapiens, read-out: LC50 NLOGVALUE

C[C@H](CN[C@@H](C(=O)Nc1ccc(-c2cnn(C)c2)cn1)c1ccccc1)c1ccc(C#N)cc1 [CPI-1612]
GI50 [1, 14]: 115 nM | IC50 [1, 15]: > 100000 nM | TGI NLOGVALUE [1]: 4 | GI50 [2, 16]: < 10 nM | IC50 [2, 17]: 12.6 nM | CC50 [2, 18]: > 100000 nM | TGI NLOGVALUE [2]: 4.56 | GI50 ([3]; Homo sapiens, OVCAR-3, read-out: GI50 NLOGVALUE): 186 nM | IC50 ([3]; Homo sapiens, OVCAR-3, read-out: IC50 NLOGVALUE): 24000 nM | CC50 ([3]; Homo sapiens, OVCAR-3, read-out: LC50 NLOGVALUE): > 100000 nM | TGI NLOGVALUE ([3]; OVCAR-3 (Ovarian Cancer), negative log of Molar conc., LCONC -8): 4 | TGI NLOGVALUE [4]: 4 | GI50 [4, 14]: 3310 nM | IC50 [4, 17]: 19100 nM | GI50 [5, 14]: 851 nM | IC50 [5, 15]: > 100000 nM | CC50 [5, 18]: > 100000 nM | TGI NLOGVALUE [5]: 4 | GI50 [6, 16]: < 10 nM | IC50 [6, 17]: 4170 nM | CC50 [6, 18]: > 100000 nM | TGI NLOGVALUE [6]: 4 | TGI NLOGVALUE [7]: 4.6 | GI50 [7, 14]: 13.2 nM | IC50 [7, 17]: 15500 nM | CC50 [7, 18]: > 100000 nM | GI50 [8, 14]: 44.7 nM | IC50 [8, 17]: 129 nM | CC50 [8, 18]: > 100000 nM | TGI NLOGVALUE [8]: 4 | GI50 ([9]; T-47D, Breast Cancer, negative log of Molar value, LCONC -8, EXPID 2301NS84, read-out: GI50 NLOGVALUE (converted)): 11.5 nM | IC50 ([9]; T-47D, Breast Cancer, negative log of Molar value, LCONC -8, EXPID 2301NS84, read-out: IC50 NLOGVALUE (converted)): 42700 nM | CC50 ([9]; T-47D, Breast Cancer, negative log of Molar value, LCONC -8, EXPID 2301NS84, read-out: LC50 NLOGVALUE): > 100000 nM | GI50 ([9]; read-out: GI50 AVGDATA (converted)): 11.7 nM | GI50 ([10]; Hs-578T, read-out: GI50 AVGDATA (converted)): 13.8 nM | GI50 ([10]; HS 578T, Breast Cancer, negative log of Molar value, LCONC -8, EXPID 2301NS84, read-out: GI50 NLOGVALUE (converted)): 14.1 nM | IC50 ([10]; HS 578T, Breast Cancer, negative log of Molar value, LCONC -8, EXPID 2301NS84, read-out: IC50 NLOGVALUE): > 100000 nM | CC50 ([10]; HS 578T, Breast Cancer, negative log of Molar value, LCONC -8, EXPID 2301NS84, read-out: LC50 NLOGVALUE): > 100000 nM | TGI NLOGVALUE [11]: 4 | GI50 [11, 16]: < 10 nM | IC50 [11, 17]: 135 nM | CC50 [11, 18]: > 100000 nM | GI50 [12, 14]: 417 nM | IC50 [12, 17]: 6760 nM | CC50 [12, 18]: > 100000 nM | TGI NLOGVALUE [12]: 4 | TGI NLOGVALUE [13]: 4 | GI50 [13, 14]: 110 nM | IC50 [13, 17]: 33900 nM | CC50 [13, 18]: > 100000 nM
